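Results reflect a 48-hour exposure of cells in 96-well plates to compound at five concentrations. GI50 is the concentration that inhibits growth by half. TGI: concentration producing complete growth inhibition.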
Assays:
Assay in all cases: NCI tumour cell line growth inhibition, 48 h
[1] = system: HL-60(TB) leukemia
[2] = system: CAKI-1 renal
[3] = system: MDA-MB-231 breast
[4] = system: SK-OV-3 ovarian
[5] = system: SNB-19 CNS
[6] = system: MOLT-4 leukemia
[7] = system: OVCAR-5 ovarian

Row | SMILES | TGI [1] | TGI [2] | TGI [3] | TGI [4] | TGI [5] | TGI [6] | TGI [7] | GI50 [4] | GI50 [6] | GI50 [7]
1 | NC1=CC(=O)c2c(O)ccc(O)c2C1=O | 6.83 µM | 66.8 µM | 38.5 µM | > 94.5 µM | > 65.9 µM | > 34.9 µM | 35.3 µM | – | – | –
2 | COc1ccc2ccc3oc(=O)c(C)cc3c2c1 | > 100 µM | > 100 µM | > 100 µM | – | > 100 µM | > 100 µM | > 100 µM | – | – | –
3 | CN(CCN1CCCC1)C1CCc2cc(Cl)c(Cl)cc2C1 (stereo unspecified) | 37.4 µM | 33.6 µM | 34.7 µM | 32.4 µM | 38.7 µM | > 100 µM | 31.4 µM | – | – | –
4 | COC(=O)CNC(=O)C(CSC(=O)OCC1c2ccccc2-c2ccccc21)NC(=O)CCC(NC(=O)OCC1c2ccccc2-c2ccccc21)C(=O)OC (stereo unspecified) | 46.8 µM | 19.9 µM | 30.2 µM | 74.6 µM | 68.1 µM | 56.8 µM | 76.7 µM | – | – | –
5 | OCc1cn(Cc2ccccc2)c2ccccc12 | > 83.2 µM | 1.64 µM | 54.5 µM | > 100 µM | > 100 µM | > 100 µM | 0.838 µM | – | – | –
6 | CC(=O)Nc1nc(Cl)cc(NCC2(CO)CCC2)n1 | > 100 µM | > 100 µM | > 100 µM | > 100 µM | > 100 µM | > 100 µM | > 100 µM | – | – | –
7 | C[C@@H]1CC[C@@]2(C)C(C(=O)O)=CCCC2[C@@]1(C)CC(=O)c1ccoc1 (stereo partly specified) | > 25 µM | > 25 µM | > 25 µM | > 25 µM | > 25 µM | > 25 µM | > 25 µM | – | – | –
8 | COc1ccc2nc(NC(=O)/C(C#N)=C/c3ccccc3)sc2c1 | 36.7 µM | > 100 µM | > 100 µM | > 100 µM | > 100 µM | > 100 µM | > 100 µM | – | – | –
9 | Nc1ncnc2c1nnn2C1C=CC(CP(=O)(O)O)C1 (stereo unspecified) | > 100 µM | – | > 100 µM | > 100 µM | > 100 µM | > 100 µM | > 100 µM | – | – | –
10 | COC1OC(C)C(NC(=O)OCC(Cl)(Cl)Cl)C2OC(C)(C)OC12 (stereo unspecified) | > 100 µM | > 100 µM | > 100 µM | > 100 µM | > 100 µM | > 100 µM | > 100 µM | – | – | –
11 | Cn1c2ccccc2c2ccc3c(c21)C(=O)c1ccc2c4ccccc4n(C)c2c1C3=O | > 100 µM | > 100 µM | > 100 µM | > 100 µM | > 100 µM | > 100 µM | > 100 µM | – | – | –
12 | O=C(COc1ccc(OCC(=O)N/N=C/c2ccc(-c3ccc(Cl)cc3Cl)o2)c(Cl)c1)N/N=C/c1ccc(-c2ccc(Cl)cc2Cl)o1 | 70.6 µM | > 100 µM | > 100 µM | – | > 100 µM | 5.5 µM | > 100 µM | – | – | –
13 | O=C(/C=C/c1ccc(Cl)cc1)Oc1ccc(C=C2CCC/C(=C\c3ccc(OC(=O)/C=C/c4ccc(Cl)cc4)cc3)C2=O)cc1 | – | > 100 µM | > 100 µM | > 100 µM | > 100 µM | > 100 µM | > 100 µM | – | – | –
14 | COc1cc2nc(-c3ccc(Cl)cc3)cc(OCCCN3CCOCC3)c2cc1OC | – | – | – | > 100 µM | – | > 100 µM | > 100 µM | 3 µM | 2.85 µM | 1.58 µM
15 | CN(C)CCN(c1ccccn1)c1ccccn1 | > 100 µM | > 100 µM | > 100 µM | > 100 µM | > 100 µM | > 100 µM | > 100 µM | – | – | –
16 | OCc1ccc2c(c1)CC1(C2)Cc2cc3c(cc2C1O)CCC3 (stereo unspecified) | > 23.4 µM | 27 µM | 13.3 µM | 46.6 µM | > 100 µM | 21.1 µM | 56.1 µM | – | – | –
17 | COC(=O)/C=C(\C)CC/C=C(\C)CCC1OC1(C)C (stereo unspecified) | 6.6 µM | 22.3 µM | 23.4 µM | > 75 µM | > 75 µM | 24.4 µM | 25.3 µM | – | – | –
18 | CC(=O)c1ccc(Oc2c3ccccc3nc3ccccc23)cc1 | 0.463 µM | 17.3 µM | 25.5 µM | 29.3 µM | 37.8 µM | – | 23.9 µM | – | – | –
19 | CN(C)c1ccc(/C=C(\NC(=O)c2ccccc2)C(=O)NC(CC(=O)O)C(=O)O)cc1 (stereo unspecified) | > 100 µM | > 100 µM | > 100 µM | > 100 µM | > 100 µM | > 100 µM | > 100 µM | – | – | –
20 | CCOC(=O)CSc1nc(N)c2c(-c3ccccc3)c3c(nc2n1)CCCC3 | > 100 µM | > 100 µM | > 100 µM | > 100 µM | > 100 µM | > 100 µM | > 100 µM | – | – | –
21 | CC(C)C(Br)CCC1=CCC(Br)(Br)C1 (stereo unspecified) | > 100 µM | 33.7 µM | 20.7 µM | 28.1 µM | 32 µM | > 100 µM | 30.5 µM | – | – | –
22 | S=C(Cc1ccc2c(c1)Sc1ccccc1O2)N1CCOCC1 | > 100 µM | > 100 µM | > 100 µM | > 100 µM | > 100 µM | > 100 µM | > 100 µM | – | – | –
23 | CN(C)C(=O)C(F)(F)C(c1ccc(F)cc1)C1C(=O)N(C)C(=O)N(C)C1=O (stereo unspecified) | – | > 100 µM | > 100 µM | > 100 µM | > 100 µM | > 100 µM | > 100 µM | – | – | –
24 | CCc1c(O)cc(=O)oc1-c1ccc(OC)c(OC)c1 | – | > 100 µM | > 100 µM | > 100 µM | > 100 µM | > 100 µM | > 100 µM | – | – | –
25 | COc1cccc(C2c3cc4c(cc3OC(O)C2C)OCO4)c1OC (stereo unspecified) | 4.83 µM | 13.9 µM | 42.4 µM | – | 74.2 µM | 18.5 µM | 60.9 µM | – | – | –
26 | COC(=O)[C@]1(C)CCC[C@@]2(C)C1CC[C@]13C=C(C(C)C)[C@H](CC21)CC3(Cl)C#N (stereo partly specified) | – | > 100 µM | > 100 µM | > 100 µM | > 100 µM | > 100 µM | > 100 µM | – | – | –
27 | Cc1nc(N)c(N2CCN(C#N)CC2)c(=O)[nH]1 | – | – | > 100 µM | – | > 100 µM | > 100 µM | > 100 µM | – | – | –
28 | CC(C)Oc1cccc(N2C(n3ccnc3)=Nc3ccncc3S2(=O)=O)c1 | – | 28.3 µM | – | 31.8 µM | 36 µM | 14.8 µM | 27.6 µM | – | – | –
29 | O=C(/C=C/c1ccc(O)c(O)c1)OCCc1ccc2ccccc2c1 | – | – | 24.3 µM | 26.3 µM | 25.9 µM | 11.3 µM | 29.7 µM | – | – | –

— PubChem BioAssay (NCI)
